Values of other authors in US20250114486A1, “MARKED FATTY ACID DERIVATIVE, PRECURSOR COMPOUND THEREOF, AND USE THEREOF IN CONTRAST AGENT” (BEIJING NORMAL UNIVERSITY, priority 2022, published 2025).
Like-named read-outs stand apart in the source and are kept apart here.

Conditions: rats, reference 4, cited from earlier work

In the case of `CC(CCCCCCCCCCCCc1ccc([123I])cc1)CC(=O)O` (centres unmarked) [[^123I]BMIPP], the Heart-to-Lungs ratio (30 min after injection) is listed as 3.16, the Heart-to-Blood ratio (30 min post-injection) is listed as 2.27 and the “absolute myocardial uptake value” (30 min post-injection) is listed as 3.63 % ID/g. For the same compound, the Heart-to-Liver ratio (60 min after injection) was 2.22, the Heart-to-Lungs ratio (60 min after injection) was 3.52 and the Heart-to-Blood ratio (60 min post-injection) was 2.51. The “absolute myocardial uptake value” (60 min post-injection) was 4.26 % ID/g, the Heart-to-Liver ratio (240 min after injection) was 2.39 and the Heart-to-Lungs ratio (240 min after injection) was 2.49. For the same compound, the Heart-to-Blood ratio (240 min post-injection) was 2.01 and the “absolute myocardial uptake value” (240 min post-injection) was 2.27 % ID/g.
